Results published in patent publication US20060148714A1, “Therapeutic peptide-based constructs” (priority 1999, published 2006).
≈ marks a conversion by molar mass, not a printed value. Where a SMILES comes first, the peptide text is derived from it. [ ]: non-standard residue; d: D form. d1Nal = N[C@H](Cc1cccc2ccccc12)C(=O)O

Columns and labels:
[1] = system: bFGF-induced angiogenesis; assay: In vivo Matrigel angiogenesis assay (hemoglobin content of excised gel); conditions: 10 μg peptide construct per gel; hemoglobin of gel excised ten days after s.c. injection; C57BL/6J mice
Description: For these experiments, peptide-based constructs according to the invention were assayed for their ability to inhibit heparin-induced angiogenesis in vivo in mice. Basement membrane matrix (Matrigel®, Becton Dickinson Labware, Mountain View, Calif.) was thawed and maintained at 4° C. and angiogenic factors were added to the gel in the liquid state generally as described in Passaniti et al., 1992, Lab. Invest. 67: 519-528. Heparin sodium (Sigma, St. Louis, Mo.) was dissolved in sterile PBS to various concentrations ranging from 1,250-10,000 U/mL, and used in these experiments at 8,000 U/mL. Human recombinant basic fibroblast growth factor (bFGF; Sigma) was reconstituted into 1. % BSA in PBS to 25 μg/mL. A volume of 2.5 μL dissolved heparin solution and 4.0 μL recombinant bFGF were added to 0.5 mL Matrigel® mixture per mouse injection. Peptide-based constructs were added to this Matrigel® mixture at varying concentrations ranging from 0.5 to 50 μg/mL (final concentration) in 10 μL/0.5 mL Matrigel® aliquot per experimental animal. Ten μL sterile PBS was substituted for peptide-based constructs in Matrigel® aliquots injected into control animals.
Female C57BL/6J mice (Jackson Laboratory, Bar Barbor, Me.) at 6-8 weeks of age (maintained under NIH guidelines) were injected subcutaneously down the dorsal midline with 0.5 mL aliquots of Matrigel® prepared as described above. Ten days after injection, the Matrigel® gels were excised and placed in Drabkin's reagent (Sigma). Total protein and hemoglobin content can be determined for the gels stored in Drabkin's reagent after mechanical homogenization of the gels. Hemoglobin concentration was measured using Sigma Procedure #525 and reagents supplied by Sigma (St. Louis, Mo.) to be used with this procedure. If desired, total protein levels are determined using a microplate assay that is commercially embodied in a kit (DC Protein Assay, Bio-Rad, Richmond, Calif.).
Gels to be used for histological staining are formalin-fixed immediately after excision from the animals rather than being placed in Drabkin's reagent. Formalin-fixed gels are embedded in Tissue-Tek O.C.T. compound (Miles, Inc., Elkhart, Ind.) for frozen sectioning. Slides of frozen sections are stained with hematoxylin and eosin (as described by Humason, 1979, Animal Tissue Techniques, 4th Ed. W.H. Feeman & Co., San Francisco, Calif., Ch. 9, pp. 111-131). The effect of peptides are detected by microscopic examination of frozen stained sections for inhibition of angiogenesis relative to Matrigel® gel slices prepared without added peptides. The extent of angiogenesis inhibition is quantitated using the normalized amounts of hemoglobin found in BPI peptide-containing gel slices.
Data are presented as the means of triplicate determinations of hemoglobin concentrations from the excised gel (ISEM) with ten mice per group.

[2] = system: human umbilical vein endothelial cells (HUVEC); type: cell-based; conditions: for IC50: 72 h
Description: Briefly, human umbilical vein endothelial cells (HUVEC) were cultured in EGM-2 medium (Clonetics Corp., San Diego, Calif.), harvested and plated onto a 96-well culture plate. After 24 hours of quiescence, the cells were co-cultured with various peptide-based constricts in the presence of growth factors for 72 hours to test their activity. Cell proliferation was quantitated by tritiated thymidine incorporation into DNA and was expressed in counts per minute (cpm).
Details of the experimental procedures were as follows: HUVEC cells were cultured in EGM-2 media from Clonetics Corp., a subsidiary of BioWhittaker, Inc., San Diego, Calif. [EGM-2 is Endothelial Cell Basal Medium-2 (EMB-2) supplemented with growth factors (hFGF-B, VEGF, IGF-1, hEGF) ascorbic acid, heparin, GA-1000 and 2% FBS), in T75 flasks until confluent (˜4-7 days). Cells were harvested by trypsinizing the cells using 0.025% trypsin/EDTA for 5 minutes. To stop the reaction, 2-5% FBS was added. The cells were centrifuged and washed 3 times using Hank's Balanced Salt Solution (HBSS) or Dulbecco's Phosphate Buffered Saline D-PBS. The pellet was then resuspended in EBM-2 supplemented with 0.1% FBS and GA-1000 was used. The cells were counted and a cell suspension was prepared at 2×10^5/mL in EBM-2 with 0.1% FBS; cells were dispensed into a 96-well flat bottomed culture plate at 0.1 mL/well (total: ˜20,000 cells/well in 0.1% FBS-EBM-2). Incubation continued at 37° C. in 5% CO2 for 20-24 hours. The next day peptide-based constructs were prepared for testing in a 96 well plate. The supernatant was aspirated from the cell-well, replaced with EBM-2 or the testing reagent at 20 μL/well. Then, 180 μL/well of 1.12% FBS-GFS were added to make a final concentration of 1% FBS-GFS in EBM-2. This aspiration and addition was done well-by-well. ^3H-thymidine (100 μCi/mL) was added at 10 μL/well (1 μCi/well, final). Incubation continued at 37° C., 5% CO2 for 72 hours. To harvest the plate, the supernatant was aspirated off from the cell-well and then 75 μL-100 μL/well of 0.025% trypsin-EDTA was added. After incubation for 8-10 minutes at room temperature in the hood, the cells were checked and 100 μL/well of 2-5% FBS-PBS was added to stop the reaction. The plate was then harvested, dried and counted using an Inotech cell harvester (Inotech Biosystems, INB-384, Sample Processing and Filter Counting System, Lansing, Mich.).

[3] = system: Factor Xa neutralization by ATIII/heparin complexes; assay: Chromostrate heparin anti-Factor Xa assay (heparin neutralization); type: biochemical; conditions: absorbance at 405 nm
Description: A Chromostrate™ assay was used to determine the effect of peptide-based constructs, including derivatized constructs, and the effect protamine sulfate (as a positive control) on Factor Xa neutralization by ATIII/heparin complexes. The assay was conducted using a Chromostrate™ heparin anti-Factor Xa assay kit (Organon Teknika Corp., Durham, N.C.). Heparin concentration was varied so that a heparin standard curve was generated. The assay measured the potentiating effect of heparin on anti-Xa activity in vitro. Solution containing heparin is incubated in the presence of ATIII with an excess of Factor Xa, forming an ATIII-Heparin-Xa complex. The remaining Xa catalyzes the release of p-nitroaniline (pNA) from the chromogenic substrate. The release of p-nitroaniline is measured at 405 nm. The absorbance obtained in inversely porportional to the concentration of heparin in the sample.
Reagents for the assay are prepared as follows. Heparin, peptide-based constructs and protamine sulfate stocks are made in saline. Stock solutions are approximately 1 mg/mL=1 μg/μL. Factor Xa reagent and substrate reagent are reconstituted with 2.0 mL purified water. Antithrombin III (ATIII) reagent is reconstituted with 1.0 mL purified water. The assay is performed in 96 well microtiter plates. Assay components are added to the microtiter wells as follows: 12.5 μl of heparin (from 0 to 10 U/mL), 25 μl of construct or protamine sulfate, 12.5 μL of ATIII (0.5 PEU/mL), 25 μL of bovine Factor Xa (14 nKat/mL), 25 μL substrate (3 μmoles/mL). The reaction is allowed to proceed for 20 minutes and then 25 μL of 0.1 M acetic acid is added. The color reaction is quantitated on a microplate reader at 405 nm. Constructs that neutralize heparin show an increase in the absorbance at 405 nm. Protamine is used as a positive control and its activity is designated as 100%. The percent (%) heparin neutralization for each peptide construct is calculated relative to the neutralization by protamine (100%), and shown in Table IV.

LPS = assay: RAW cell assay of LPS neutralization; type: cell-based
[4] = system: E. coli (J5 and 0111 B4), Staphylococcus aureus and Candida albicans; assay: Broth and/or radial diffusion antimicrobial assays; type: cell-based
Source text: Assays useful for testing a variety of biological activities of BPI protein products, including BPI-derived peptides, are described in co-owned U.S. Pat. Nos. 5,733,872; 5,763,567; 5,652,332; and 5,856,438 and corresponding PCT Publication Nos. WO 94/20532 (PCT/US94/02465) and WO 95/19372 (PCT/US94/10427) and U.S. Pat. No. 5,858,974 and corresponding PCT Publications Nos. WO 96/08509 (PCT/US95/09262) and WO 97/04008 (PCT/US96/03845), incorporated herein by reference. These activities include antimicrobial (including antibacterial and antifungal), LPS binding, LPS neutralization and additional assays of heparin binding as well as heparin neutralization.

| Structure (SMILES) | % Inhibition [1] [%] | IC50 [2] [µg/mL] | Assay A: percent heparin neutralization relative to protamine (100%) [3] [%] | Assay B: percent heparin neutralization relative to protamine (100%) [3] [%] | LPS neutralization activity (LPS) | antimicrobial activity [4] | IC50 values, additional assays ([2]; HUVEC proliferation, purified constructs, said to be comparable to Table II (μg/mL)) |
| --- | --- | --- | --- | --- | --- | --- | --- |
| CC[C@@H](C)[C@@H](NC(=O)[C@@H](CCCCN)NC(=O)[C@H](NC(=O)[C@@H](CO)NC(=O)CNC(=O)[C@@H](CCCCN)NC(=O)[C@@H](Cc1cccc2ccccc12)NC(=O)[C@@H](CCCCN)NC(=O)[C@@H](C)NC(=O)[C@@H](CCC(N)=O)NC(=O)[C@@H](Cc1cccc2ccccc12)NC(=O)[C@@H](CCCNC(=N)N)NC(=O)[C@@H](Cc1ccccc1)NC(=O)[C@@H](CC(C)C)NC(=O)[C@H](N)CCCCN)[C@H](C)CC)C(N)=O [XMP.394, k-l-f-r-(naph-a)-q-a-k-(naph-a)-k-g-s-i-k-i] (H-[dK][dL][dF][dR][d1Nal][dQ][dA][dK][d1Nal][dK]G[dS][dI][dK][dI]-NH2; N-terminus assumed) | 54.6 | 4.3 ± 0.5 (≈ 2.25 µM) | 143 | 133 | – | – | – |
| CC(C)C[C@@H](NC(=O)[C@H](N)CCCCN)C(=O)N[C@H](Cc1ccccc1)C(=O)N[C@H](CCCNC(=N)N)C(=O)N[C@H](Cc1cccc2ccccc12)C(=O)N[C@H](CCC(N)=O)C(=O)N[C@H](C)C(=O)N[C@H](CCCCN)C(=O)N[C@H](Cc1cccc2ccccc12)C(=O)N[C@H](CCCCN)C(N)=O [XMP.628, k-l-f-r-(naph-a)-q-a-k-(naph-a)-k] (H-[dK][dL][dF][dR][d1Nal][dQ][dA][dK][d1Nal][dK]-NH2) | – | – | 107 | 68 | showed activity | highest antimicrobial activities | – |
| CC(C)C[C@@H](NC(=O)[C@H](N)CCCCN)C(=O)N[C@H](Cc1ccccc1)C(=O)N[C@H](CCCNC(=N)N)C(=O)N[C@H](Cc1cccc2ccccc12)C(=O)N[C@H](CCC(N)=O)C(=O)N[C@H](C)C(=O)N[C@H](CCCCN)C(=O)N[C@H](Cc1cccc2ccccc12)C(=O)N[C@H](CCCCN)C(=O)NCC(N)=O [XMP.627, k-l-f-r-(naph-a)-q-a-k-(naph-a)-k-g] (H-[dK][dL][dF][dR][d1Nal][dQ][dA][dK][d1Nal][dK]G-NH2; N-terminus assumed) | 77.6 | 5.8 ± 0.7 (≈ 3.95 µM) | 98 | 62 | – | highest antimicrobial activities | – |
| CC(C)C[C@@H](NC(=O)[C@H](N)CCCCN)C(=O)N[C@H](Cc1ccccc1)C(=O)N[C@H](CCCNC(=N)N)C(=O)N[C@H](Cc1cccc2ccccc12)C(=O)N[C@H](CCC(N)=O)C(=O)N[C@H](C)C(=O)N[C@H](CCCCN)C(N)=O [XMP.630, k-l-f-r-(naph-a)-q-a-k] (H-[dK][dL][dF][dR][d1Nal][dQ][dA][dK]-NH2; N-terminus and C-terminus assumed) | 49.6 | >25 | 2.3 | 0.5 | – | – | > 50 |
| CC[C@@H](C)[C@@H](NC(=O)[C@@H](CO)NC(=O)CNC(=O)[C@@H](CCCCN)NC(=O)[C@@H](Cc1cccc2ccccc12)NC(=O)[C@@H](CCCCN)NC(=O)[C@@H](C)NC(=O)[C@@H](CCC(N)=O)NC(=O)[C@@H](Cc1cccc2ccccc12)NC(=O)[C@@H](CCCNC(=N)N)NC(=O)[C@@H](Cc1ccccc1)NC(=O)[C@@H](CC(C)C)NC(=O)[C@H](N)CCCCN)C(N)=O [XMP.625, k-l-f-r-(naph-a)-q-a-k-(naph-a)-k-g-s-i] (H-[dK][dL][dF][dR][d1Nal][dQ][dA][dK][d1Nal][dK]G[dS][dI]-NH2) | – | – | 79 | 125 | showed activity | – | – |
